Consider two molecules from article PMC3639963, “A New Class of Small Molecule Inhibitor of BMP Signaling” (PLoS ONE, 2013).

One may read the inhibition as the change of the read-out against control, counted positive when it falls.

Test in all cases: Nanosyn kinase profiling
Common to all, as to format: biochemical
Common to all, as to details: read-out: Percentage inhibition; for inhibition at 0.1 µM: 0.1 µM inhibitor; for inhibition at 1 µM: 1 µM inhibitor

One assay has as its target T1, ZAP70 (Homo sapiens, UniProt P43403).
T1 construct: purchased Nanosyn (enzymatic panel); SGC in-house recombinant human kinases (DSF panel); Invitrogen (ALK1-6)
T1 sequence (P43403 1-619): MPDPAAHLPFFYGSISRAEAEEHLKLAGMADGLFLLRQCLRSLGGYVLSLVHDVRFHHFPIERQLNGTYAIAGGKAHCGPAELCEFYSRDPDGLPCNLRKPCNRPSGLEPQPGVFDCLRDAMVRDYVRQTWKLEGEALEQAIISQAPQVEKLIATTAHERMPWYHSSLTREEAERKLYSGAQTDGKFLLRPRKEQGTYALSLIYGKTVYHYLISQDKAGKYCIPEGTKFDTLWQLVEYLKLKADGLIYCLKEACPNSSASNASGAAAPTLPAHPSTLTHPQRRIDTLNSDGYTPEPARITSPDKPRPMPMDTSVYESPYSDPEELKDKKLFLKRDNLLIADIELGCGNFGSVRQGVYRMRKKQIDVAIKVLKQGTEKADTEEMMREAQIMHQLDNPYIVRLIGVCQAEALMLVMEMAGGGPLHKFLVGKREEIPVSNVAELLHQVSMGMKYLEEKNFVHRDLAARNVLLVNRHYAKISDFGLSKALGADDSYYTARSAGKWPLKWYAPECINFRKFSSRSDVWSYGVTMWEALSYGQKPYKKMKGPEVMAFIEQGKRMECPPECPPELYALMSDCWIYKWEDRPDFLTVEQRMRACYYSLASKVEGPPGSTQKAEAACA
A digest of the protocol: (§1)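 Percent inhibition of each kinase was measured with the inhibitor at 0.1 µM and at 1 µM, as part of a 200-kinase human selectivity panel.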

For a further assay, the target named is T2, LYNA (Homo sapiens, UniProt P07948).
T2 construct: purchased Nanosyn (enzymatic panel); SGC in-house recombinant human kinases (DSF panel); Invitrogen (ALK1-6)
T2 sequence (P07948 whole entry): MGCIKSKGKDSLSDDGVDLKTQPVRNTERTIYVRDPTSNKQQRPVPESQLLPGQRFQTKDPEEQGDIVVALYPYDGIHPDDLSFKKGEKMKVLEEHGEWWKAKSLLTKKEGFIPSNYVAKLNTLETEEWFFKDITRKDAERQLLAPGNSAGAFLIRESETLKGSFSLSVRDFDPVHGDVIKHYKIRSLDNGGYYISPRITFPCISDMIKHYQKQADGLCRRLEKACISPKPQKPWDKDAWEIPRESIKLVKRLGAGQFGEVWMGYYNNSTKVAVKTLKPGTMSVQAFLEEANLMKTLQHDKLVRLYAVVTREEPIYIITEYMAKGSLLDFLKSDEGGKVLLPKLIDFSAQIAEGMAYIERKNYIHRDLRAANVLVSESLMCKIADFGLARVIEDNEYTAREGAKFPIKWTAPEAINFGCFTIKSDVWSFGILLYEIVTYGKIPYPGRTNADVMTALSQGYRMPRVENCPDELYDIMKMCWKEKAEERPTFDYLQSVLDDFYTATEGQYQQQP
A digest of the protocol: as §1

The target of the next assay is T3, MAP4K2 (Homo sapiens, UniProt Q12851).
T3 construct: purchased Nanosyn (enzymatic panel); SGC in-house recombinant human kinases (DSF panel); Invitrogen (ALK1-6)
T3 sequence (Q12851 1-820): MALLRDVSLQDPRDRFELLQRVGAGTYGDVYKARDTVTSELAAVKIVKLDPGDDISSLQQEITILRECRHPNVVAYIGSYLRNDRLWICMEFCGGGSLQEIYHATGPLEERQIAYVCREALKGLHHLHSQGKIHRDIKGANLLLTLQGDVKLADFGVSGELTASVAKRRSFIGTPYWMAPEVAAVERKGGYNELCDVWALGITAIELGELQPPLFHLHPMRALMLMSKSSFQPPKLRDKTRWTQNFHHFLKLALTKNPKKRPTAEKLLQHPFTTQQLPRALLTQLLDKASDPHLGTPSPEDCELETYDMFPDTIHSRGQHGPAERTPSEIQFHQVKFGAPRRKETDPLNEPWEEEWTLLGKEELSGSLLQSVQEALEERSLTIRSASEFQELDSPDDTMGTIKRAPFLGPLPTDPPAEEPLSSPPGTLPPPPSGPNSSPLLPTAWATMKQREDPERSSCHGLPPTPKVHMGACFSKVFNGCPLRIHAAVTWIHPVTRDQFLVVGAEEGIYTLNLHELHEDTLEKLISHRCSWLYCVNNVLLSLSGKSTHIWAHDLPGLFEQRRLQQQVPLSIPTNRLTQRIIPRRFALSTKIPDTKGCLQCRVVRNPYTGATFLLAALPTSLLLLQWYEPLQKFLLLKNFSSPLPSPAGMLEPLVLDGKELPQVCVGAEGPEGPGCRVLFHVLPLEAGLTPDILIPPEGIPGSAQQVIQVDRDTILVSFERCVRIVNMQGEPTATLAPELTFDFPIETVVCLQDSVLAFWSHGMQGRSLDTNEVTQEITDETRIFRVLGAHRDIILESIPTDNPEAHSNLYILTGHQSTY
A digest of the protocol: as §1

The target in a further assay is T4, NEK9 (Homo sapiens, UniProt Q8TD19).
T4 construct: purchased Nanosyn (enzymatic panel); SGC in-house recombinant human kinases (DSF panel); Invitrogen (ALK1-6)
T4 sequence (Q8TD19 1-979): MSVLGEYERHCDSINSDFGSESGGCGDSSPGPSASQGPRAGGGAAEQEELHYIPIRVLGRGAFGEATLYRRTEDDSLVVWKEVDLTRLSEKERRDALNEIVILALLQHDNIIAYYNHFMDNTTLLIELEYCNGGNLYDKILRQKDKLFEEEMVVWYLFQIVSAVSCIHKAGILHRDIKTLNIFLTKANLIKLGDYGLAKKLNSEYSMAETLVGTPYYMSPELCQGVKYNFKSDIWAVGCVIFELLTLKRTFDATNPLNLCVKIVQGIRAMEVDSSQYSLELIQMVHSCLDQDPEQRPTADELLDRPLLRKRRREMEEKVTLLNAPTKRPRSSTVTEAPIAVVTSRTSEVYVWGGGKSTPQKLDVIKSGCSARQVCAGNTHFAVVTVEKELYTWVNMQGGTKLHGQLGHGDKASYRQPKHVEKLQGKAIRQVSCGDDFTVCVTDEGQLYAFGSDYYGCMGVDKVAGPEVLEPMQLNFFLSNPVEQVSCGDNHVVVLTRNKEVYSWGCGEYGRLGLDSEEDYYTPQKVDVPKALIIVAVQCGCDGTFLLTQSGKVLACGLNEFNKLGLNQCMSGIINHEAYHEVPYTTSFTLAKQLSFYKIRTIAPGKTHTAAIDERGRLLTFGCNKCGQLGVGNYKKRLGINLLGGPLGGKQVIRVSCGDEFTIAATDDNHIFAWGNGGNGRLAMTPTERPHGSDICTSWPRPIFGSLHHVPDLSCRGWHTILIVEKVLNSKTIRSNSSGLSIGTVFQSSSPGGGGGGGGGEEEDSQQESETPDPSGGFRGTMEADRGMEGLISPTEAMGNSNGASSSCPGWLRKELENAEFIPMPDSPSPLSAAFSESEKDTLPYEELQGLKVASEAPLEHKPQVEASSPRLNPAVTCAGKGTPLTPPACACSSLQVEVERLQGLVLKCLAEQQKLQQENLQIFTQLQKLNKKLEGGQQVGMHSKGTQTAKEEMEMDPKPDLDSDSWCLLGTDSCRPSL
The gist of the method:
as §1

On to `c1ccc2c(-c3cnn4cc(-c5ccc(N6CCNCC6)cc5)cnc34)ccnc2c1` [LDN-193189], for which the inhibition at 0.1 µM turned out to be 4.7% at ZAP70, 9.1% on LYNA, 21% at MAP4K2 and 1.9% at NEK9. Further, the inhibition at 1 µM at ZAP70 was found to be 1%; at LYNA it was 39%; at MAP4K2, 65%; at NEK9, 6.6%.

On to `COc1cc(-c2cc(-c3cccc(O)c3)cnc2N)cc(OC)c1OC` [K02288, 3-[6-amino-5-(3,4,5-trimethoxy-phenyl)-pyridin-3-yl]-phenol], for which the inhibition at 0.1 µM on ZAP70 is -2%; on LYNA it was 9.7%; at MAP4K2, 18%; at NEK9, 5.3%. The inhibition at 1 µM on ZAP70 was 1%; at LYNA, 49%; on MAP4K2, 53%; at NEK9, -2%.
